The text below walks through data of ChEMBL document CHEMBL5214932, “A closer look at N2,6-substituted 1,3,5-triazine-2,4-diamines: Advances in synthesis and biological activities” (Eur J Med Chem, 2022).

Broadly, the IC50 is the point on the concentration scale where inhibition reaches its midpoint. For orientation: Ki means a dissociation constant, usually derived from enzyme kinetics or from competition with a known ligand. Low readings indicate a stronger hold on the target, high ones a looser hold on the target. As a reminder, the Emax is the maximal effect, on the per cent scale that the assay sets. In general, EC50 refers to the concentration at which the effect is half-maximal. The low end stands for higher potency in that assay, the high end for lower potency in that assay.

Data set [1] addresses NADPH oxidase 1 (Homo sapiens, UniProt Q9Y5S8). Description: Inhibition of human NOX1.
The target in data set [2] is NADPH oxidase 2 (Homo sapiens, UniProt P04839). Description: Inhibition of human NOX2.
Chain of NADPH oxidase 2 (P04839 whole entry): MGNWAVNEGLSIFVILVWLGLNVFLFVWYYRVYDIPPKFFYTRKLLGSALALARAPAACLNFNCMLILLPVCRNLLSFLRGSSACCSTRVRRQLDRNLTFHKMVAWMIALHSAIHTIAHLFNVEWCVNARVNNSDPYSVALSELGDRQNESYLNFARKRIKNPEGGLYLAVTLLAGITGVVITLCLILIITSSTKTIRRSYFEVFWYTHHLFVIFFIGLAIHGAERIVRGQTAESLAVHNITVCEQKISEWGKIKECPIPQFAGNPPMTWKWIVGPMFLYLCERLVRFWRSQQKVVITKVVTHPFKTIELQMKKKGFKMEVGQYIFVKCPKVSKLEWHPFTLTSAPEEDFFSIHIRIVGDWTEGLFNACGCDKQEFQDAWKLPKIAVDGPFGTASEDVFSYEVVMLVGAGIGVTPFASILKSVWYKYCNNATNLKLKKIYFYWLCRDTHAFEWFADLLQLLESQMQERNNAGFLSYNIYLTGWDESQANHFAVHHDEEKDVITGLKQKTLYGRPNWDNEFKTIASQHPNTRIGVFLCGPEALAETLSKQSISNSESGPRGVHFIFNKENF
Data set [3] addresses NADPH oxidase 3 (Homo sapiens, UniProt Q9HBY0). Description: Inhibition of human NOX3.
Data set [4] has as its target NADPH oxidase 4 (Homo sapiens, UniProt Q9NPH5). The data set can be described thus: Inhibition of human NOX4.
Data set [5] addresses NADPH oxidase 5 (Homo sapiens, UniProt Q96PH1). Description: Inhibition of human NOX5.
Data set [6] has as its target 5-hydroxytryptamine receptor 1A (Homo sapiens, UniProt P08908). The data set can be described thus: Displacement of […] from human 5-HT1AR expressed in HEK293 cells by radioligand binding assay. It counts as cell-based. Background: In a radioligand displacement assay an active substance lowers the binding of a labelled ligand.
Data set [7] addresses 5-hydroxytryptamine receptor 2A (Homo sapiens, UniProt P28223). Description: Displacement of […] from human 5-HT2AR expressed in HEK293 cells by radioligand binding assay. It is filed as cell-based.
Data set [8] has as its target 5-hydroxytryptamine receptor 7 (Homo sapiens, UniProt P34969). The data set can be described thus: Displacement of [3H]-5Carboxyamidotryptamine from human 5-HT7R expressed in HEK293 cells by radioligand binding assay. It is filed as cell-based.
The target in data set [9] is D(2) dopamine receptor (Homo sapiens, UniProt P14416). Description: Displacement of [3H]-Raclopride from human dopamine D2 receptor expressed in HEK293 cells by radioligand binding assay. It counts as cell-based.
Chain of D(2) dopamine receptor (P14416 whole entry): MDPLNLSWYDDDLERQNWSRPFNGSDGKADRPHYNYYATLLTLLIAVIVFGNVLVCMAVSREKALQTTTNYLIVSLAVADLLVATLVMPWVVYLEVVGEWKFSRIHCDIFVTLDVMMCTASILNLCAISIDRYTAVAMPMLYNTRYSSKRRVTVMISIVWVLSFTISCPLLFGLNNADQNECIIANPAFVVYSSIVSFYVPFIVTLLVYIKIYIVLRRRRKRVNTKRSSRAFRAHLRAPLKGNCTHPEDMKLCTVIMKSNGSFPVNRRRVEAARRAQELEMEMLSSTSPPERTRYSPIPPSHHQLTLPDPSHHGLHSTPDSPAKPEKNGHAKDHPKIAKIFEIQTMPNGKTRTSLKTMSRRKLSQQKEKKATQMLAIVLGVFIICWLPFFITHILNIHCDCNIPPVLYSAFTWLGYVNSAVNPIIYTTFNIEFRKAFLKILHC
The target of data set [10] is T1, Free fatty acid receptor 1 (Homo sapiens, UniProt O14842). The data set can be described thus: Positive allosteric modulation of GPR40 (unknown origin) at 100 uM assessed as maximum efficacy relative to control. The following applies: filed as positive allosteric modulator.
T1 sequence (O14842 whole entry): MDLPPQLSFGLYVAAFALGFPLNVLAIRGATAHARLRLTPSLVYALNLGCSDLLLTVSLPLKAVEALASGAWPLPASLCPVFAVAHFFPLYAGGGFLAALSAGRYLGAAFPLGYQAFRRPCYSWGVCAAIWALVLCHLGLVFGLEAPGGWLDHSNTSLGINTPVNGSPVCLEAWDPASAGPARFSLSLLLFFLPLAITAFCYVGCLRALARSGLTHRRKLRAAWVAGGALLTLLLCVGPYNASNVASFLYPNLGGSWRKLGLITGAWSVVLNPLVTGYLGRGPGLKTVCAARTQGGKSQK
The target of data set [11] is T1, Free fatty acid receptor 1. The data set can be described thus: Positive allosteric modulation of GPR40 (unknown origin).
Data set [12] concerns A-427. The data set can be described thus: Cytotoxicity against human A-427 cells assessed as cell growth inhibition measured after 96 hrs by microplate reader analysis. It counts as functional, cell-based. The following applies: A-427, 96 h.
The subject of data set [13] is DAN-G. Description: Cytotoxicity against human DAN-G cells assessed as cell growth inhibition measured after 96 hrs by microplate reader analysis. It counts as functional, cell-based.
For data set [14], the system named is LCLC. The data set can be described thus: Cytotoxicity against human LCLC cells assessed as cell growth inhibition measured after 96 hrs by microplate reader analysis. It counts as functional, cell-based.
Data set [15] relates to SISO. Description: Cytotoxicity against human SISO cells assessed as cell growth inhibition measured after 96 hrs by microplate reader analysis. It is filed as functional, cell-based.
In data set [16] the test system is RT-4. Description: Cytotoxicity against human RT-4 cells assessed as cell growth inhibition measured after 96 hrs by microplate reader analysis. It is filed as functional, cell-based. Particulars: RT-4, 96 h.
The subject of data set [17] is MDA-MB-231. Description: Antiproliferative activity against human MDA-MB-231 cells assessed as cell growth inhibition measured after 72 hrs by MTT assay. Particulars: MDA-MB-231, 72 h. It counts as functional, cell-based. Background: Tetrazolium assays rely on reduction of a dye to a coloured formazan, in cell work by metabolically active cells.
The subject of data set [18] is DU-145. The data set can be described thus: Antiproliferative activity against human DU-145 cells assessed as cell growth inhibition measured after 72 hrs by MTT assay. It counts as functional, cell-based. The following applies: DU-145, 72 h.
Data set [19] concerns SK-BR-3. The data set can be described thus: Antiproliferative activity against human SK-BR-3 cells assessed as cell growth inhibition measured after 72 hrs by MTT assay. It is filed as functional, cell-based. Particulars: SK-BR-3, 72 h.
In data set [20] the test system is MCF7. Description: Antiproliferative activity against human MCF7 cells assessed as cell growth inhibition measured after 72 hrs by MTT assay. The following applies: MCF7, 72 h. It is filed as functional, cell-based.
Data set [21] has as its system MCF-10A. Description: Antiproliferative activity against human MCF-10A cells assessed as cell growth inhibition measured after 72 hrs by MTT assay. It is filed as functional, cell-based.
In data set [22] the target is T2, 5-hydroxytryptamine receptor 6 (Homo sapiens, UniProt P50406). The data set can be described thus: Displacement of [3H]-LSD from human 5-HT6R expressed in HEK293 cells by radioligand binding assay. It counts as cell-based.
T2 sequence (P50406 whole entry): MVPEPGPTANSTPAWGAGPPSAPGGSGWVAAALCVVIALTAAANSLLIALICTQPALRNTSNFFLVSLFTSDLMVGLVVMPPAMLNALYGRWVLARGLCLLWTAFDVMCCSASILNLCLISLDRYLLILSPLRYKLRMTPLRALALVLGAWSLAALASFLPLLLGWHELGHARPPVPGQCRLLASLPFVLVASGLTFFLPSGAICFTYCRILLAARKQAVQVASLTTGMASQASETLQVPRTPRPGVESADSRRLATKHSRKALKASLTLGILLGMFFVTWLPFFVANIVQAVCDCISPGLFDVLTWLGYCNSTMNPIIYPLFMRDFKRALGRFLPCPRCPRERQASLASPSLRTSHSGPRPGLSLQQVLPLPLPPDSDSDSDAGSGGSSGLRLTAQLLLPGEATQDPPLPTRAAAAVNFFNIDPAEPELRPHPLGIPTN
For data set [23], the target named is T3, Equilibrative nucleoside transporter 1 (Homo sapiens, UniProt Q99808).
T3 sequence (Q99808 whole entry): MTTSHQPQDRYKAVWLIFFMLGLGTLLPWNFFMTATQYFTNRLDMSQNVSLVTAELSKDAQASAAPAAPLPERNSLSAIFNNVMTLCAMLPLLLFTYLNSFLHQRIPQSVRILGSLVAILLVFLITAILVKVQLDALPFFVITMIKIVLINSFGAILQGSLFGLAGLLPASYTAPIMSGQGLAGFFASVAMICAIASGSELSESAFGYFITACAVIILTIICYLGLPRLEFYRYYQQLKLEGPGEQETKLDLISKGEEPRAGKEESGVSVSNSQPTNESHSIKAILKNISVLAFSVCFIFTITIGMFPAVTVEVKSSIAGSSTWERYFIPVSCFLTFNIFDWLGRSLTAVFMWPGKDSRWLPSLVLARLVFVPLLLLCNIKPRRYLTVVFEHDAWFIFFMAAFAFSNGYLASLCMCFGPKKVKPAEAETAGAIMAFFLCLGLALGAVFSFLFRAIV
The data set can be described thus: Inhibition of human ENT1 transfected in nucleoside transporter-deficient pig PK-15 cells assessed as inhibition of [3H]-adenosine uptake by liquid scintillation counter analysis. It is filed as cell-based.

In data set [24] the target is T4, Equilibrative nucleoside transporter 2 (Homo sapiens, UniProt Q14542).
T4 sequence (Q14542 whole entry): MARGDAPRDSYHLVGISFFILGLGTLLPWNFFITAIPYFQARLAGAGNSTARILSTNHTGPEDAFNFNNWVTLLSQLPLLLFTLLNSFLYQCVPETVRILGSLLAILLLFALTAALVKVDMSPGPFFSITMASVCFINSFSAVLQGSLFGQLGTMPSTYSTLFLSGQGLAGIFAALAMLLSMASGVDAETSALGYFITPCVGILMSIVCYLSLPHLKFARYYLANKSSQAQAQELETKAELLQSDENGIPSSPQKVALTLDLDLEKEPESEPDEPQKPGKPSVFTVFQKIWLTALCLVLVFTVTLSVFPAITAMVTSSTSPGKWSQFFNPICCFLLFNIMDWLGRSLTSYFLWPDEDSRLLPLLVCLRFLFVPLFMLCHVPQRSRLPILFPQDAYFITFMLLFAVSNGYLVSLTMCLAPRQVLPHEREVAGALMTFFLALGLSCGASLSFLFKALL
The data set can be described thus: Inhibition of human ENT2 transfected in nucleoside transporter-deficient pig PK-15 cells assessed as inhibition of [3H]-adenosine uptake by liquid scintillation counter analysis. It is filed as cell-based.

For data set [25], the target named is T3, Equilibrative nucleoside transporter 1. Description: Inhibition of human ENT1 transfected in nucleoside transporter-deficient pig PK-15 cells assessed as inhibition of [3H]-uridine uptake by liquid scintillation counter analysis. It is filed as cell-based.
The target in data set [26] is T4, Equilibrative nucleoside transporter 2. Description: Inhibition of human ENT2 transfected in nucleoside transporter-deficient pig PK-15 cells assessed as inhibition of [3H]-uridine uptake by liquid scintillation counter analysis. It is filed as cell-based.
Data set [27] can be described thus: Cytotoxicity against human MT2 cells assessed as cell growth inhibition by MTT assay. It is filed as toxicity, cell-based.
Data set [28] relates to Human immunodeficiency virus 1. The data set can be described thus: Antiviral activity against wild type HIV1 IIIB assessed as viral growth inhibition measured after 5 days by MTT assay. It counts as functional, organism-based. Particulars: Human immunodeficiency virus 1, IIIB, 120 h.
Data set [29] concerns Jurkat. The data set can be described thus: Cytotoxicity against human Jurkat cells assessed as cell growth inhibition measured after 72 hrs by MTS assay. It is filed as functional, cell-based.
Data set [30] in a line: Cytotoxicity against […] cells assessed as cell growth inhibition measured after 72 hrs by CellTiter-Glo assay. It is filed as functional, cell-based. The following applies: Hepa1-6, 72 h. On the technique in general: In ATP-based viability assays light output follows the ATP content of the culture.
A short description of data set [31]: Cytotoxicity against human Hepa 1-6/R cells assessed as cell growth inhibition measured after 72 hrs by CellTiter-Glo assay. It counts as functional, cell-based.
Data set [32] has as its target T2, 5-hydroxytryptamine receptor 6. Description: Displacement of [3H]-LSD from human 5-HT6R expressed in HEK293 cells assessed as binding constant by radioligand binding assay. It counts as cell-based.

Chain of 5-hydroxytryptamine receptor 1A (P08908 whole entry): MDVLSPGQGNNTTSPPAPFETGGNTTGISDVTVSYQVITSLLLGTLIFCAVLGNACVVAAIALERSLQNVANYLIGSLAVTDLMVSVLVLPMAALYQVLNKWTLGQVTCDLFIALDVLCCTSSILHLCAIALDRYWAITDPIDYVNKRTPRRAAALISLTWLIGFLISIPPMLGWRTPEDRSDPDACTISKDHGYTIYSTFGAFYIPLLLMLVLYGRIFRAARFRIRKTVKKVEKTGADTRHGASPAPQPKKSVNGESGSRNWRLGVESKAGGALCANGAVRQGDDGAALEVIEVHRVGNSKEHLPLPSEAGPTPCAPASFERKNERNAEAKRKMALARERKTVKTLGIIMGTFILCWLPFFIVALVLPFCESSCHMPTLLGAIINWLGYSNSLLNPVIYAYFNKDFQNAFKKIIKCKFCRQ
Chain of 5-hydroxytryptamine receptor 7 (P34969 whole entry): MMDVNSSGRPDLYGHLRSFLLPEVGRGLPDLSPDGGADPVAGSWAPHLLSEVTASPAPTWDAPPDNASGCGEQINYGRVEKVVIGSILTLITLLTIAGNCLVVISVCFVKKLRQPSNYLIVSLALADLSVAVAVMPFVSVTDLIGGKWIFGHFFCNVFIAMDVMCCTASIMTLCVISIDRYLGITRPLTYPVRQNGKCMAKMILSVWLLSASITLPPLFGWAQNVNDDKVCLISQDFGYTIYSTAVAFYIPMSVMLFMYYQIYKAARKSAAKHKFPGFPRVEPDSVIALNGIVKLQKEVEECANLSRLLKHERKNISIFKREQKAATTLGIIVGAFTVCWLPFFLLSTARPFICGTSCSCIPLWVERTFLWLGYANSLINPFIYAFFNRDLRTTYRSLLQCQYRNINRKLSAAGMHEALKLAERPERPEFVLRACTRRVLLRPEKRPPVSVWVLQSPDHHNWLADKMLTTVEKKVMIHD
Chain of NADPH oxidase 4 (Q9NPH5 whole entry): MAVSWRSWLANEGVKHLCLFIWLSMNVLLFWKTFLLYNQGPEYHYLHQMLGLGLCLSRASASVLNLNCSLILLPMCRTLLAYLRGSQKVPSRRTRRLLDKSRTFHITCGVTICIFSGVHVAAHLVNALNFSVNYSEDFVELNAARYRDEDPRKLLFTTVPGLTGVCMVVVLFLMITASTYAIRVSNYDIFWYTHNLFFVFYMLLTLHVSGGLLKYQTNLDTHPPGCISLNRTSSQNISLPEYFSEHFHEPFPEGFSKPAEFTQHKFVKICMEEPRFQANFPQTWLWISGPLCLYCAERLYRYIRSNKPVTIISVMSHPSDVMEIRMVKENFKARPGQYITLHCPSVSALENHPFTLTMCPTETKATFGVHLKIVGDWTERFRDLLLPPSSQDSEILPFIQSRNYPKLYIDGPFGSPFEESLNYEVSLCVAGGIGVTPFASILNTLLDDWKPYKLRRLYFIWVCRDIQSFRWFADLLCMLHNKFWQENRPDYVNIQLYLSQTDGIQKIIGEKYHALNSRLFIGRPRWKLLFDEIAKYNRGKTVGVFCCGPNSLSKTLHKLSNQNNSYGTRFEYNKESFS
Chain of NADPH oxidase 5 (Q96PH1 whole entry): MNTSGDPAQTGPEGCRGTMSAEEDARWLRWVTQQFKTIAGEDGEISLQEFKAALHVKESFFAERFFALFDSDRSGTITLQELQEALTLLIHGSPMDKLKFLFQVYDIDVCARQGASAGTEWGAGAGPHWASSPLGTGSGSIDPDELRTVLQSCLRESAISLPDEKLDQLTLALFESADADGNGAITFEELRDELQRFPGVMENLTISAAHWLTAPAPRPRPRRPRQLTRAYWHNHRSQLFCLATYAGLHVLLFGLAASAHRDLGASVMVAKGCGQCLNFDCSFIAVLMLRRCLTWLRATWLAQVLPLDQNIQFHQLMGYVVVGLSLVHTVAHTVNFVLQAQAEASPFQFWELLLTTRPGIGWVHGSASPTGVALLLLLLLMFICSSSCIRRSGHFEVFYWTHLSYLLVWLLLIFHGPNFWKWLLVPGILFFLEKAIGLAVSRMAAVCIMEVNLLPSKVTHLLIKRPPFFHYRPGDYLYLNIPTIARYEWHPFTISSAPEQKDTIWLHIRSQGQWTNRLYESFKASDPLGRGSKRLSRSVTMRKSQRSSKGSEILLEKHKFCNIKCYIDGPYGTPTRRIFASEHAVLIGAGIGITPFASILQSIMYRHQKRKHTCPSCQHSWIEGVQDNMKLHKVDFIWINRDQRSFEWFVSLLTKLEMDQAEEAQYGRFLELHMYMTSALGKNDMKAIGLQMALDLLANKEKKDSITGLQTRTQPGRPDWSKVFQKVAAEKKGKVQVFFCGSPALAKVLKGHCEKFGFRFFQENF
Chain of NADPH oxidase 1 (Q9Y5S8 whole entry): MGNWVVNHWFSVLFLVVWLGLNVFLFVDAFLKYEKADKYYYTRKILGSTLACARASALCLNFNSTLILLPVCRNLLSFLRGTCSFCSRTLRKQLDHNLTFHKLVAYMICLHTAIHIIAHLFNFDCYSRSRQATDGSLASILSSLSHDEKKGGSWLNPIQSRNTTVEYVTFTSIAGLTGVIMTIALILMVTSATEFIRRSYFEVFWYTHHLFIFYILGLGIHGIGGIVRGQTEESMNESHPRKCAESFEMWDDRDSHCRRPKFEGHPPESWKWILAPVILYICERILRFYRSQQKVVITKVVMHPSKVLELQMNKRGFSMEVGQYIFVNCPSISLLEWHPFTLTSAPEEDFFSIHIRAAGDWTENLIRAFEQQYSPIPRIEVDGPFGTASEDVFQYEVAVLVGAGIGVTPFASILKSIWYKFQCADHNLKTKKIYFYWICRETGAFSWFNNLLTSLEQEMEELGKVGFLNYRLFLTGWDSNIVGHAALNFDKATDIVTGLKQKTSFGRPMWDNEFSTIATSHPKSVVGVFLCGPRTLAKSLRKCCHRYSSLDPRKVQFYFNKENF

As for `Cc1ccc(N2CCN(c3nc(N)nc(Nc4ccc(C)c(C)c4)n3)CC2)cc1`, the IC50 stood at 7000 nM in data set [1]; 16000 nM in data set [2]; 3200 nM in data set [3]; 680 nM in [4]; 570 nM in data set [5].

For `CN1CCN(c2nc(N)nc(C(C)(C)Sc3ccc4ccccc4c3)n2)CC1`, the Ki in data set [6] was determined as 2290 nM; in data set [7], 39 nM; in data set [8] it was 610 nM; in data set [9], 300 nM.

As to `Cc1ccccc1Nc1nc(N)nc(COc2ccc3c(C)cc(=O)oc3c2)n1`, the Emax in data set [10] was found to be 134%. A half-maximal response in data set [11] (EC50) required 776 nM.

Turning to `CCN(CC)c1ccc2cc(-c3nc(N)nc(N4CCN(c5ccccc5)CC4)n3)c(=N)oc2c1`, the IC50 in data set [12] worked out at 1510 nM; in data set [13] it was 2140 nM; in [14] it was 2210 nM; in [15], 2600 nM; in [16], 1660 nM.

On to `CN(C)c1ccc(-c2nc(N)nc(Nc3ccccc3F)n2)cc1`, for which the 50% inhibitory concentration (IC50) in data set [17] was 60 nM; in data set [18] it was 670 nM; in [19], 290 nM; in data set [20], above 20000 nM; in [21], above 25000 nM.

In [22], `CC(Oc1ccccc1Cl)c1nc(N)nc(N2CCN(C)CC2)n1` (stereo not given) yielded a Ki of 28 nM.

For the molecule `Nc1nc(CN2CCN(c3ccccc3F)CC2)nc(Nc2cccc3ccccc23)n1`, the IC50 in data set [23] turned out to be 19400 nM; in data set [24], 4360 nM; in data set [25], 18000 nM; in [26] it was 1690 nM.

As for `N#C/C=C/c1cccc(Oc2cc(Nc3nc(N)nc(C4CC4)n3)ccc2C#N)c1`, the IC50 in [27] is 1700 nM; in [28] it was 43 nM.

Consider `Nc1nc(-c2ccccc2)nc(N2CCc3ccccc3C2)n1`, for which the IC50 in [29] amounted to 1950 nM.

As to `C[C@H](CCc1nc(N)nc(N(C)C)n1)[C@H]1CC[C@H]2[C@@H]3[C@@H](O)C[C@@H]4C[C@H](O)CC[C@]4(C)[C@H]3CC[C@]12C`, the figures for the 50% inhibitory concentration (IC50) in data set [30] and in data set [31] were 28600 nM and 30300 nM, respectively.

For `CN1CCN(c2nc(N)nc(Cc3c[nH]c4ccccc34)n2)CC1`, the results for the inhibition constant (Ki) in [6], in data set [8] and in data set [9] were 9450 nM, 16800 nM and 1950 nM, respectively. Also, the Kb in data set [32] worked out at 18 nM.
